Converted amounts (≈) assume the structure as drawn. Values belong to the molecule of their own block, whether it stands above or below them.
Columns and labels:
Escherichia coli [1] = experiment: Antibacterial activity against Escherichia coli ATCC 25922 assessed as inhibition of bacterial growth; type: functional
Staphylococcus aureus [2] = experiment: Antibacterial activity against Staphylococcus aureus ATCC 29213 assessed as inhibition of bacterial growth; type: functional
Shigella flexneri = experiment: Antibacterial activity against Shigella flexneri assessed as inhibition of bacterial growth; type: functional
Staphylococcus aureus [3] = experiment: Antibacterial activity against Staphylococcus aureus assessed as inhibition of bacterial growth; type: functional
[4] = AUC (0 to t) in C57 mouse at 1 mg/kg,iv administration; type: ADME, organism-based; conditions: in vivo
Haemophilus influenzae = experiment: Antibacterial activity against Haemophilus influenzae assessed as inhibition of bacterial growth; type: functional
DNA gyrase = DNA gyrase (Staphylococcus aureus, UniProt P0A0K8+P20831); experiment: Inhibition of Staphylococcus aureus DNA gyrase; type: protein-complex assay
Pseudomonas aeruginosa = experiment: Antibacterial activity against Pseudomonas aeruginosa assessed as inhibition of bacterial growth; type: functional
Streptococcus pyogenes = experiment: Antibacterial activity against Streptococcus pyogenes assessed as inhibition of bacterial growth; type: functional
Klebsiella pneumoniae = experiment: Antibacterial activity against Klebsiella pneumoniae assessed as inhibition of bacterial growth; type: functional
[5] = C0 in C57 mouse at 1 mg/kg,iv administration; type: ADME, organism-based; conditions: in vivo
Cytochrome P450 2D6 = Cytochrome P450 2D6 (Homo sapiens, UniProt P10635); experiment: Inhibition of CYP2D6 (unknown origin) at 10 uM; type: ADME
Chain of Cytochrome P450 2D6 (P10635 whole entry): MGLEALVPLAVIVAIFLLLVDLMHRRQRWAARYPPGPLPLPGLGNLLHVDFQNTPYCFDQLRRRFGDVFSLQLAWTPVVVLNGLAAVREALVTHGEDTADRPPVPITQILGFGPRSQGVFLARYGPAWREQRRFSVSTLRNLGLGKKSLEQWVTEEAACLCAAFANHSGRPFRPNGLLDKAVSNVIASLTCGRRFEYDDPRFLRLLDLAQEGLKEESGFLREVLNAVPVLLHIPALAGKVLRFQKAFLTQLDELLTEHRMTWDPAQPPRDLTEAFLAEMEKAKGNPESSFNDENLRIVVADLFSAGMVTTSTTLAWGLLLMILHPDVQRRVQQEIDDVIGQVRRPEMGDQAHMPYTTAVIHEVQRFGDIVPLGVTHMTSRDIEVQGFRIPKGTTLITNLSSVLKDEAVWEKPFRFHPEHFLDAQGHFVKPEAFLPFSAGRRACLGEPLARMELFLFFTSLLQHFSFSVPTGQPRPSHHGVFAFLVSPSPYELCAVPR

[6] = Volume of distribution at steady state in C57 mouse at 1 mg/kg,iv administration; type: ADME, organism-based; conditions: in vivo, read-out: Vdss
[7] = Tmax in C57 mouse at 3 mg/kg,po administration; type: ADME, organism-based; conditions: in vivo
[8] = Plasma protein binding in human; type: ADME, cell-free; conditions: read-out: PPB (converted)
Cytochrome P450 3A4 = Cytochrome P450 3A4 (Homo sapiens, UniProt P08684); experiment: Inhibition of CYP3A4 (unknown origin) at 10 uM; type: ADME
Chain of Cytochrome P450 3A4 (P08684 whole entry): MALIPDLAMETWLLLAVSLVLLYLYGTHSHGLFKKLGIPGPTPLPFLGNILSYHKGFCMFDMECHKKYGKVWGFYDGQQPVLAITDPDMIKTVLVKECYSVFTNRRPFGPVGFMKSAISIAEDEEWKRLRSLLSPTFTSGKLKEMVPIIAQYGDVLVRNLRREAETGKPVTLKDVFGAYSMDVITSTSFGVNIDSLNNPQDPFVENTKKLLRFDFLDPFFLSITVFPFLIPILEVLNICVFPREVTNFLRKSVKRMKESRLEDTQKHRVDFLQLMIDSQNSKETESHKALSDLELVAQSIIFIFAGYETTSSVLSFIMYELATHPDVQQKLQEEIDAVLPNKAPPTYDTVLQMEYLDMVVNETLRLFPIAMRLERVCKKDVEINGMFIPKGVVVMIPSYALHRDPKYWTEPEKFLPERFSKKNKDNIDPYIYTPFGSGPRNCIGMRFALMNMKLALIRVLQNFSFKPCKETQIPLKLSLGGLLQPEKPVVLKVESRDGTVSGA

[9] = AUC (0 to t) in C57 mouse at 3 mg/kg,po administration; type: ADME, organism-based; conditions: in vivo
[10] = MRT in C57 mouse at 1 mg/kg,iv administration; type: ADME, organism-based; conditions: in vivo
[11] = Solubility of compound in PBS; type: physicochemical
Enterococcus faecalis [12] = experiment: Antibacterial activity against Enterococcus faecalis assessed as inhibition of bacterial growth; type: functional
[13] = Cmax in C57 mouse at 3 mg/kg,po administration; type: ADME, organism-based; conditions: in vivo
Salmonella enterica = experiment: Antibacterial activity against Salmonella enterica assessed as inhibition of bacterial growth; type: functional
Cytochrome P450 1A2 = molecular target: T1, Cytochrome P450 1A2 (Homo sapiens, UniProt P05177); experiment: Inhibition of CYP1A2 (unknown origin) at 10 uM; type: ADME
T1 sequence (P05177 whole entry): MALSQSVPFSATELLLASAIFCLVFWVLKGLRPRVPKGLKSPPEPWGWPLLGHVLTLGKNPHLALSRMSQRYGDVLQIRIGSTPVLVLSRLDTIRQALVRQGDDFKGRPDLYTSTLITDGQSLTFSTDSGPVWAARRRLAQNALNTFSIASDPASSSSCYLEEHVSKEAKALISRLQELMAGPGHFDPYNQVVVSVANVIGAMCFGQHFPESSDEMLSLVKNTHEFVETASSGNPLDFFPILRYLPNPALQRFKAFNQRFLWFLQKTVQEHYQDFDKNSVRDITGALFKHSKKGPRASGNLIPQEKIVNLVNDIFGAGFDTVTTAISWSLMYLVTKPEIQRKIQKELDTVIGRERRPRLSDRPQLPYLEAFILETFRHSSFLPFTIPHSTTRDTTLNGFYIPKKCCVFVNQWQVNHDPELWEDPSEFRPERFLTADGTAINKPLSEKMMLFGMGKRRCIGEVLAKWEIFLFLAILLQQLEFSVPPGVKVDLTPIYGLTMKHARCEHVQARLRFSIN

Staphylococcus aureus [14] = experiment: Antibacterial activity against methicillin resistant Staphylococcus aureus assessed as inhibition of bacterial growth; type: functional
[15] = Clearance in C57 mouse at 1 mg/kg,iv administration; type: ADME, organism-based; conditions: in vivo
Topoisomerase IV = Topoisomerase IV (Staphylococcus aureus, UniProt P0C1S7+P0C1U9); experiment: Inhibition of Staphylococcus aureus DNA topoisomerase 4; type: protein-complex assay
Enterococcus faecalis [16] = experiment: Antibacterial activity against vancomycin-resistant Enterococcus faecalis assessed as inhibition of bacterial growth; type: functional
Escherichia coli [17] = experiment: Antibacterial activity against Escherichia coli assessed as inhibition of bacterial growth; type: functional
Cytochrome P450 2C19 = Cytochrome P450 2C19 (Homo sapiens, UniProt P33261); experiment: Inhibition of CYP2C19 (unknown origin) at 10 uM; type: ADME
Chain of Cytochrome P450 2C19 (P33261 whole entry): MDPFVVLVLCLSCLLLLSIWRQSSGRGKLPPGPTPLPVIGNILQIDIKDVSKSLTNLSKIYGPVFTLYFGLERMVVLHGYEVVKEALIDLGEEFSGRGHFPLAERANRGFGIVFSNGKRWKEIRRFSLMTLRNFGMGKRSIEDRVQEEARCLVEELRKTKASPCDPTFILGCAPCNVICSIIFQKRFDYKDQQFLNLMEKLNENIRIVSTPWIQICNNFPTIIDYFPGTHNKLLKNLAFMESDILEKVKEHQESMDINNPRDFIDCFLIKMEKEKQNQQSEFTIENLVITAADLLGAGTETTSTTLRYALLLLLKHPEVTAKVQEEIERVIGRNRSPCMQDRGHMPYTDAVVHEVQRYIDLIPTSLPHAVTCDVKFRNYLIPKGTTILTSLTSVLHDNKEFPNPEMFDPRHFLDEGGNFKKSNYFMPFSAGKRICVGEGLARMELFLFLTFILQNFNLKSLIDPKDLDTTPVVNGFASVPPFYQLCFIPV

Helicobacter pylori = experiment: Antibacterial activity against Helicobacter pylori assessed as inhibition of bacterial growth; type: functional
Cytochrome P450 2C8 = molecular target: T2, Cytochrome P450 2C8 (Homo sapiens, UniProt P10632); experiment: Inhibition of CYP2C8 (unknown origin) at 10 uM; type: ADME
T2 sequence (P10632 whole entry): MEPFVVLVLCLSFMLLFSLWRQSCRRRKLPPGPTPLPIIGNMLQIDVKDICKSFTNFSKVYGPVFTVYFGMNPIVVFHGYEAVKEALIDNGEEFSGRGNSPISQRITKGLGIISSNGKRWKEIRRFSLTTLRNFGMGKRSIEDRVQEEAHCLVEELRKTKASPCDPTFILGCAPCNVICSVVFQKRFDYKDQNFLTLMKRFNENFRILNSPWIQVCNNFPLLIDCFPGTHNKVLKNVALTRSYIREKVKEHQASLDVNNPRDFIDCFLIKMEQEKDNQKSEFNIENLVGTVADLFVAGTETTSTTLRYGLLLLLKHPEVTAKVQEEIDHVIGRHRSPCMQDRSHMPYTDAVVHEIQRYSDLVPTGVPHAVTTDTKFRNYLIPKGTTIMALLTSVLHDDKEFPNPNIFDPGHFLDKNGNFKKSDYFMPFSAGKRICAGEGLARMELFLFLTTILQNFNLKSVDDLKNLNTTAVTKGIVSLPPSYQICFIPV

Enterococcus faecium = experiment: Antibacterial activity against Enterococcus faecium assessed as inhibition of bacterial growth; type: functional
Salmonella typhimurium = experiment: Antibacterial activity against Salmonella typhimurium assessed as inhibition of bacterial growth; type: functional, Salmonella enterica subsp. enterica serovar Typhimurium
Acinetobacter baumannii = experiment: Antibacterial activity against Acinetobacter baumannii assessed as inhibition of bacterial growth; type: functional
[18] = Half life in C57 mouse at 1 mg/kg,iv administration; type: ADME, organism-based; conditions: in vivo
Streptococcus pneumoniae = experiment: Antibacterial activity against Streptococcus pneumoniae assessed as inhibition of bacterial growth; type: functional
[19] = Bioavailability in C57 mouse at 1 mg/kg,iv administration; type: ADME, organism-based; conditions: in vivo
[20] = Aqueous solubility of compound; type: physicochemical

Compound: N#Cc1ccc2ccc(=O)n(CCN3CCC(NCc4ccc5c(c4)OCC(C(=O)O)O5)CC3)c2c1 (centres undefined)
MIC (Escherichia coli [1]): > 16 µg/mL | MIC (Staphylococcus aureus [2]): > 16 µg/mL

Compound: c1ccc2c(c1)c1ccccc1n2CCN1CCC(NCc2cc3c(cn2)OCCC3)CC1
MIC (Escherichia coli [1]): > 16 µg/mL | MIC (Staphylococcus aureus [2]): > 16 µg/mL

Compound: O=S1(=O)C=Cc2ccccc2N1CCN1CCC(NCc2cc3c(cn2)OCCC3)CC1
MIC (Escherichia coli [1]): > 16 µg/mL | MIC (Staphylococcus aureus [2]): > 16 µg/mL

Compound: O=S1(=O)c2ccccc2N(CCN2CCC(NCc3cc4c(cn3)OCCC4)CC2)c2ccccc21
MIC (Escherichia coli [1]): > 16 µg/mL | MIC (Staphylococcus aureus [2]): > 16 µg/mL

Compound: N#Cc1ccc2ccc(=O)n(CCN3CCC(NCc4ccc5c(c4)NC(=O)CS5)CC3)c2c1
MIC (Shigella flexneri): 0.25 µg/mL (≈ 0.528 µM) | MIC (Staphylococcus aureus [3]): 0.016 µg/mL (≈ 0.0338 µM) | MIC90 (Staphylococcus aureus [3]): 0.125 µg/mL (≈ 0.264 µM) | AUC(0-t) [4]: 206 ng·h/mL | MIC (Haemophilus influenzae): 2 µg/mL (≈ 4.22 µM) | IC50 (DNA gyrase): 3.2 nM | MIC (Pseudomonas aeruginosa): 0.125 µg/mL (≈ 0.264 µM) | MIC90 (Pseudomonas aeruginosa): 8 µg/mL (≈ 16.9 µM) | MIC (Escherichia coli [1]): < 0.125 µg/mL | MIC (Staphylococcus aureus [2]): < 0.125 µg/mL | MIC (Streptococcus pyogenes): 0.15 µg/mL (≈ 0.317 µM) | MIC90 (Streptococcus pyogenes): 0.25 µg/mL (≈ 0.528 µM) | MIC90 (Klebsiella pneumoniae): 16 µg/mL (≈ 33.8 µM) | C0 [5]: 1210 ng/mL | inhibition (INH) (Cytochrome P450 2D6): Not Active | Vd [6]: 14 L/kg | Tmax [7]: 3 h | fraction unbound [8]: 0.21 | inhibition (INH) (Cytochrome P450 3A4): Not Active | AUC(0-t) [9]: 110 ng·h/mL | MRT [10]: 3 h | solubility ([11]; PBS, read-out: solubility): 611 µg/mL (≈ 1290 µM) | MIC (Enterococcus faecalis [12]): 0.5 µg/mL (≈ 1.06 µM) | MIC90 (Enterococcus faecalis [12]): 0.5 µg/mL (≈ 1.06 µM) | Cmax [13]: 22 ng/mL | MIC (Salmonella enterica): 1 µg/mL (≈ 2.11 µM) | inhibition (INH) (Cytochrome P450 1A2): Not Active | MIC (Staphylococcus aureus [14]): 0.03 µg/mL (≈ 0.0633 µM) | MIC90 (Staphylococcus aureus [14]): 0.125 µg/mL (≈ 0.264 µM) | clearance [15]: 80 mL/min/kg | IC50 (Topoisomerase IV): 300 nM | MIC (Enterococcus faecalis [16]): 0.25 µg/mL (≈ 0.528 µM) | MIC90 (Enterococcus faecalis [16]): 4 µg/mL (≈ 8.45 µM) | MIC (Escherichia coli [17]): 0.125 µg/mL (≈ 0.264 µM) | MIC90 (Escherichia coli [17]): 2 µg/mL (≈ 4.22 µM) | inhibition (INH) (Cytochrome P450 2C19): Not Active | MIC (Helicobacter pylori): < 0.06 µg/mL | inhibition (INH) (Cytochrome P450 2C8): Not Active | MIC (Enterococcus faecium): 1 µg/mL (≈ 2.11 µM) | MIC90 (Enterococcus faecium): 1 µg/mL (≈ 2.11 µM) | MIC (Salmonella typhimurium): 2 µg/mL (≈ 4.22 µM) | MIC (Acinetobacter baumannii): 0.125 µg/mL (≈ 0.264 µM) | MIC90 (Acinetobacter baumannii): 2 µg/mL (≈ 4.22 µM) | half-life [18]: 2.5 h | MIC (Streptococcus pneumoniae): 0.125 µg/mL (≈ 0.264 µM) | MIC90 (Streptococcus pneumoniae): 1 µg/mL (≈ 2.11 µM) | bioavailability [19]: 18% | solubility ([20]; aqueous medium, read-out: solubility): 719 µg/mL (≈ 1520 µM)

Compound: CCOC(=O)C1COc2ccc(CNC3CCN(CCn4c(=O)ccc5ccc(C#N)cc54)CC3)cc2O1 (centres undefined)
MIC (Escherichia coli [1]): > 16 µg/mL | MIC (Staphylococcus aureus [2]): > 16 µg/mL

Compound: CN1C(=O)COc2ccc(CNC3CCN(CCn4c(=O)ccc5ccc(C#N)cc54)CC3)cc21
MIC (Escherichia coli [1]): 16 µg/mL (≈ 33.9 µM) | MIC (Staphylococcus aureus [2]): 8 µg/mL (≈ 17 µM)

Compound: O=S1(=O)c2ccccc2-c2ccccc2N1CCN1CCC(NCc2cc3c(cn2)OCCC3)CC1
MIC (Escherichia coli [1]): > 16 µg/mL | MIC (Staphylococcus aureus [2]): > 16 µg/mL

Compound: O=c1ccc2ncc(=O)n3c2n1C[C@H]3CN1CCC(NCc2cc3c(cn2)OCCC3)CC1 [GEPOTIDACIN]
AUC(0-t) [4]: 244 ng·h/mL | MIC90 (Pseudomonas aeruginosa): 32 µg/mL (≈ 71.3 µM) | MIC (Escherichia coli [1]): 0.5 µg/mL (≈ 1.11 µM) | MIC (Staphylococcus aureus [2]): 0.25 µg/mL (≈ 0.557 µM) | C0 [5]: 724 ng/mL | Vd [6]: 5 L/kg | Tmax [7]: 2 h | fraction unbound [8]: 0.67 | AUC(0-t) [9]: 176 ng·h/mL | MRT [10]: 1.4 h | solubility ([11]; buffer): 663 µg/mL (≈ 1480 µM) | Cmax [13]: 90 ng/mL | clearance [15]: 60 mL/min/kg | MIC90 (Acinetobacter baumannii): 64 µg/mL (≈ 143 µM) | half-life [18]: 1.7 h | bioavailability [19]: 24% | solubility ([20]; buffer): 580 µg/mL (≈ 1290 µM)

More lines, now with the values ahead:

MIC (Escherichia coli [1]): 0.5 µg/mL (≈ 1.13 µM) | MIC (Staphylococcus aureus [2]): 0.125 µg/mL (≈ 0.282 µM)
Compound: N#Cc1ccc2ccc(=O)n(CCN3CCC(NCc4cc5c(cn4)OCCC5)CC3)c2c1

MIC (Escherichia coli [1]): 2 µg/mL (≈ 4.11 µM) | MIC (Staphylococcus aureus [2]): 0.125 µg/mL (≈ 0.257 µM)
Compound: O=c1ccc2ccc(C(F)(F)F)cc2n1CCN1CCC(NCc2cc3c(cn2)OCCC3)CC1

MIC (Escherichia coli [1]): > 16 µg/mL | MIC (Staphylococcus aureus [2]): 2 µg/mL (≈ 4.26 µM)
Compound: O=c1c2ccccc2c2ncccc2n1CCN1CCC(NCc2cc3c(cn2)OCCC3)CC1

MIC (Escherichia coli [1]): > 16 µg/mL | MIC (Staphylococcus aureus [2]): 1 µg/mL (≈ 2.13 µM)
Compound: O=c1c2ccccc2c2ccccc2n1CCN1CCC(NCc2cc3c(cn2)OCCC3)CC1

MIC (Escherichia coli [1]): 1 µg/mL (≈ 2.27 µM) | MIC (Staphylococcus aureus [2]): < 0.125 µg/mL
Compound: N#Cc1ccc2ccc(=O)n(CCN3CCC(NCc4ccc5c(c4)CCCC5)CC3)c2c1

Source: ChEMBL document CHEMBL6127020, “Discovery of aminopiperidine based potent & novel topoisomerase inhibitor with broad spectrum anti-bacterial activity” (Bioorg Med Chem Lett, 2024)
